The results in this text go back to PubChem BioAssay AID720587 (Broad Institute, 2013).

The nature of the experiment: EWS/Fli1-dependent A673 cell killing, confirmation, CellTiter-Glo luminescence, cherry-pick retest (AID 720587). The settings on record: A673 Ewing sarcoma viability, CellTiter-Glo ATP luminescence, 72 h. On the technique in general: In ATP-based viability assays light output follows the ATP content of the culture.

Molecules are shown by their SMILES. Calls of active or inactive are those of the source.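 Rule for the calls: active = fitted curve reaches -35% activity change at a concentration below twice the top valid dose tested; inactive = the rest, including effects opposite to the expected direction.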

Regarding `CN(C)C(=O)c1cccc(-c2ccc(C3[C@@H]4CN(Cc5nccs5)C[C@H]3N4)cc2)c1` (stereo partly drawn), where the note is “at 26 µM (top of the series)”, the activity change, negative = cytotoxicity is -4.24% (inactive).
On the same count and under the same terms, the result for `N#C[C@H]1[C@H](c2ccc(C#Cc3ccccc3F)cc2)[C@@H](CO)N1C(=O)C1CCOCC1` reads -1.72% (inactive); that for `COc1ccc(CCC(C)NCC2CCCCC2)cc1` (stereo not drawn), 2.42% (inactive).
Consider `CCc1cnc(N2[C@H](C#N)[C@H](c3ccc(C#Cc4ccccc4F)cc3)[C@H]2CO)s1`, for which the activity change, negative = cytotoxicity (at 26 µM (top of the series)) is -10.8% (inactive).
Still for that read-out and setting: the result for `O=C(/C=C/c1ccc(Cl)cc1Cl)N(Cc1ccc(Cl)cc1)C1CCS(=O)(=O)C1` (stereo not drawn) reads 2.8% (inactive); that for `C(=C\c1ccc(C2[C@H]3CNC[C@@H]2N3Cc2ccccn2)cc1)/c1ccccc1` (stereo partly drawn), -3.03% (inactive); that for `COc1ccc(NC(=O)N(C)[C@H]2C[C@H]3c4[nH]c5ccccc5c4CCN3C(=O)[C@H]2CO)cc1`, 5.76% (inactive).
In the case of `C[C@@H]1CN([C@H](C)CO)C(=O)c2cc(NC(=O)CCCCCC(=O)Nc3ccccc3N)ccc2O[C@H]1CN(C)S(=O)(=O)c1ccc(Cl)cc1`, for the setting “at 26 µM (top of the series)”, the activity change, negative = cytotoxicity was -2.24% (inactive).
On the same count and under the same terms, the result for `CCOC(=O)c1c(-c2ccc(C)cc2)csc1NC(=O)CCN1CCOCC1` reads 3.44% (inactive).
On the same count and under the same terms, to `COC(=O)c1cccc(NC(=O)NC(=O)c2ccccc2Cl)c1` belongs -9.77% (inactive); to `COC(=O)COc1ccc(-c2nccc(-c3ccccn3)n2)cc1`, 11.6% (inactive).
Take `Cc1ccc(C(=O)CN2C(=O)c3ccccc3S2(=O)=O)cc1`: the activity change, negative = cytotoxicity (at 26 µM (top of the series)) was 11.7% (inactive).
Consider `c1ccc(-c2ccc([C@H]3[C@H]4CNC[C@@H]3N4Cc3cc(-c4ccccc4)on3)cc2)cc1`, for which the activity change, negative = cytotoxicity (at 26 µM (top of the series)) is -11.9% (inactive).
On to `N#Cc1cccc(-c2ccc(C3[C@@H]4CN(C(=O)Cc5ccncc5)C[C@H]3N4)cc2)c1` (stereo partly drawn), for which the activity change, negative = cytotoxicity (at 26 µM (top of the series)) is -0.912% (inactive).
Still for that read-out and setting: to `O=C(COC(=O)c1ccc[nH]c1=O)Nc1ccc(N2CCCCC2)cc1` belongs 0.213% (inactive); to `O=C(O)c1cccc(N/N=C/c2cccs2)c1`, -8.12% (inactive); to `Cc1ccc(S(=O)(=O)N(C)C[C@H]2Oc3c(cccc3N(C)C)C(=O)N([C@@H](C)CO)C[C@@H]2C)cc1`, -1.85% (inactive).
For the molecule `C[C@@H]1CCCCO[C@@H](CN(C)C(=O)Cc2ccccc2)[C@@H](C)CN([C@@H](C)CO)C(=O)c2cc(NS(=O)(=O)c3ccc(F)cc3)ccc2O1`, the activity change, negative = cytotoxicity (at 26 µM (top of the series)) was 7.89% (inactive).
Turning to `O=c1c2ccccc2oc2ccc(C#CC3(O)CCCCC3)cc12`, the activity change, negative = cytotoxicity (at 26 µM (top of the series)) is 1.29% (inactive).
`COc1ccc(NC(=O)c2cc3ccccc3oc2=O)cc1`: under “at 26 µM (top of the series)”, the activity change, negative = cytotoxicity is -20.8% (inactive).
The same measure, in the same setting: the result for `Cc1ccsc1/C=N/Nc1ccc(C(=O)O)cc1` reads 5.43% (inactive); that for `O=C(O)c1ccc(N/N=C/c2c[nH]c3ccccc23)cc1`, -1.6% (inactive).
For the molecule `O=c1c2ccccc2oc2cc(C#CC3(O)CCCCC3)ccc12`, the activity change, negative = cytotoxicity (at 26 µM (top of the series)) was 6.95% (inactive).
The same measure, in the same setting: the result for `C[C@@H]1CN([C@@H](C)CO)S(=O)(=O)c2ccc(C#Cc3ccncc3)cc2O[C@H]1CN(C)C(=O)C1CCOCC1` reads -7.5% (inactive); that for `CC(=O)Nc1cc(C(=O)NCc2ccco2)ccc1Sc1ccc(F)cc1`, 8.55% (inactive).
Same read-out and setting: to `O=C(Nc1ccc(OC(=O)N2CCCCC2)cc1)N1CCOCC1` belongs 1.28% (inactive); to `CC(C)CC(NC(=O)c1cccs1)c1nnc(SCc2ccc(Cl)c(Cl)c2)n1C` (stereo not drawn), 6.55% (inactive); to `Nc1ccc(Oc2ccccc2-c2ccccc2)cc1`, -6.58% (inactive).
On the same count and under the same terms, the result for `CCOC(=O)Cc1ccc(NC(=O)c2ccccc2Br)cc1` reads -0.788% (inactive); that for `C[C@H](CO)N1C[C@H](C)[C@H](CN(C)Cc2ccc(C(F)(F)F)cc2)Oc2c(NS(=O)(=O)c3ccc(Cl)cc3)cccc2C1=O`, 4.37% (inactive); that for `Cc1ccsc1C(=O)OCC(=O)c1cc(C)n(C)c1C`, -0.814% (inactive).
Turning to `COC(=O)C[C@@H]1CC[C@@H]2[C@@H](COc3ccc(NC(=O)Cc4cccs4)cc3C(=O)N2C)O1`, the activity change, negative = cytotoxicity (at 26 µM (top of the series)) was -23.4% (inactive).
As to `CO[C@H]1CN(C)C(=O)c2cc(NC(=O)NC(C)C)ccc2OC[C@H](C)N(Cc2ccc(-c3ccccn3)cc2)C[C@@H]1C`, the activity change, negative = cytotoxicity (at 26 µM (top of the series)) was -4.3% (inactive).
Take `CCOc1ccc(-c2cc(CCCC(=O)NCc3ccc(C)cc3)no2)cc1`: the activity change, negative = cytotoxicity (at 26 µM (top of the series)) was -9.1% (inactive).
Still for that read-out and setting: to `O=C1CCCC2=C1C(c1ccccn1)Nc1ccc(C(=O)c3ccccc3)cc1N2` (stereo not drawn) belongs 3.59% (inactive).
Same read-out and setting: to `COC(=O)C[C@@H]1CC[C@@H]2[C@H](COc3ccc(NC(=O)c4ccccc4)cc3C(=O)N2C)O1` belongs -5.14% (inactive).
For `CC(Oc1cccc(Cl)c1)C(=O)NCCCCc1ccccc1` (stereo not drawn), under “at 26 µM (top of the series)”, the activity change, negative = cytotoxicity was 3.26% (inactive).
For `C[C@@H]1CN([C@H](C)CO)S(=O)(=O)c2ccc(C#CC3CC3)cc2O[C@@H]1CN(C)Cc1ccccc1F`, the activity change, negative = cytotoxicity (at 26 µM (top of the series)) is -19.6% (inactive).
Regarding `CCc1ccc(/C=C2\SC(=S)N(CCCC(=O)NC3=NCCS3)C2=O)cc1`, the activity change, negative = cytotoxicity (at 26 µM (top of the series)) was 1.62% (inactive).
As for `c1cncc(-c2ccc([C@@H]3[C@H]4CNC[C@@H]3N4CC3CCOCC3)cc2)c1`, the activity change, negative = cytotoxicity (at 26 µM (top of the series)) was 9.2% (inactive).
Same read-out and setting: the result for `CCNC(=O)c1cccc(S(=O)(=O)N2CCCCCC2)c1` reads 0.705% (inactive); that for `Nc1ccc(-c2cc3ccccc3c(=O)o2)cc1`, -2.08% (inactive); that for `Cc1c(-c2nc(-c3ccc(C(C)(C)C)cc3)no2)n(C)oc1=O`, 2.17% (inactive).
Consider `CC(=O)Nc1ccc(OCC(=O)N(CC(C)C)C2CCS(=O)(=O)C2)cc1` (stereo not drawn), for which the activity change, negative = cytotoxicity (at 26 µM (top of the series)) was 8.05% (inactive).
Regarding `C(=N\Nc1ccc2ccccc2n1)/c1ccc2c(c1)OCCO2`, under “at 26 µM (top of the series)”, the activity change, negative = cytotoxicity is -22.2% (inactive).
For `CCCc1cc(=O)oc2c3c(c4c(c12)OC(C)(C)C=C4)OC(C)C(C)C3O` (stereo not drawn), the activity change, negative = cytotoxicity (at 26 µM (top of the series)) is -3.35% (inactive).
The same measure, in the same setting: to `Cc1ccc(NC(=O)CCN2CCCCC2)cc1` belongs 12.4% (inactive); to `CC(=O)c1ccc(N=Nc2ccc(C)cc2)cc1`, 2.05% (inactive).
On the same count and under the same terms, to `C=CCn1c(O)c(N=Nc2ccccc2)c2ccccc21` belongs 7.11% (inactive).
For the molecule `Cc1ccc(/C=N/Nc2ccc3ccccc3n2)o1`, for the setting “at 26 µM (top of the series)”, the activity change, negative = cytotoxicity was -3.75% (inactive).
On to `CC(C)CN(C(=O)CN1CCOCC1)c1c(N)n(CC(C)C)c(=O)[nH]c1=O`, for which the activity change, negative = cytotoxicity (at 26 µM (top of the series)) was -1.6% (inactive).
For the molecule `O=C(O)c1ccc(N/N=C/c2ccc(OC(=O)c3cccc(Cl)c3)cc2)cc1`, the activity change, negative = cytotoxicity (at 26 µM (top of the series)) was -8.45% (inactive).
Regarding `CCC(C)Cn1c(O)cc2nn(-c3nc4ccccc4s3)c(=O)c-2c1C` (stereo not drawn), for the setting “at 26 µM (top of the series)”, the activity change, negative = cytotoxicity is -13.1% (inactive).
The same measure, in the same setting: the result for `C=CC[n+]1c(-c2ccc(C)cc2)csc1Nc1ccc(NC(C)=O)cc1` reads -9.93% (inactive); that for `CC(C)(C)c1ccc(Oc2ccc(NC(=O)C3CC=CCC3C(=O)O)cc2)cc1` (stereo not drawn), 6.05% (inactive); that for `COc1ccc(C(=O)CN2C(=O)c3ccccc3S2(=O)=O)cc1`, 1.43% (inactive).
Still for that read-out and setting: to `Cc1ccc2oc(/N=C(\N)NC(=O)C(C)(C)C)nc2c1` belongs -3.45% (inactive).
As for `COC(=O)C[C@@H]1CC[C@@H]2[C@H](COc3ccc(NC(=O)c4cccc(F)c4)cc3C(=O)N2C)O1`, the activity change, negative = cytotoxicity (at 23.5 µM (top of the series)) is -1.57% (inactive).
In the case of `CC(=O)c1ccc(N(C(=O)Cn2nnc3ccccc32)C(C(=O)NCc2ccccc2)c2ccccn2)cc1` (stereo not drawn), the activity change, negative = cytotoxicity (at 26 µM (top of the series)) is 3.66% (inactive).
Same read-out and setting: the result for `CC(=O)c1ccc(N=C2C(=O)Nc3ccccc32)cc1` reads -4.29% (inactive).
In the case of `COc1ccccc1NC(=O)N1[C@@H]2CNC[C@H]1[C@@H]2c1ccc(-c2ccc(C#N)cc2)cc1`, the activity change, negative = cytotoxicity (at 23.5 µM (top of the series)) is 13.3% (inactive).
Take `COC(=O)c1cccc(NC(=O)NC(=O)c2ccc(Cl)cc2)c1`: under “at 26 µM (top of the series)”, the activity change, negative = cytotoxicity was -6.08% (inactive).
On to `O=C(CNC(=O)Cc1ccccc1)N=Nc1c(O)n(Cc2ccc3c(c2)OCO3)c2ccccc12`, for which, under “at 26 µM (top of the series)”, the activity change, negative = cytotoxicity was -1.52% (inactive).
The same measure, in the same setting: the result for `CCn1c(C)cc(C(=O)CN2C(=O)c3ccccc3S2(=O)=O)c1C` reads 9.42% (inactive); that for `Cc1c(Cl)cnc(NC(=O)COC(=O)c2ccc3ncsc3c2)c1Cl`, 12.1% (inactive); that for `O=C(CN1C(=O)C(=O)c2ccccc21)c1ccc(Cl)cc1`, -6.17% (inactive).
Same read-out and setting: the result for `C(=N\Nc1ccc2ccccc2n1)/c1ccc2c(c1)OCO2` reads -5.01% (inactive).
Same read-out and setting: to `Cc1cc(C(=O)NNC(=O)c2ccc(S(=O)(=O)N(C)C)cc2)c(C)o1` belongs 1% (inactive); to `C/C(=N\OCc1cccc(C(=O)O)c1)c1ccc(Cl)cc1`, -3.02% (inactive).
In the case of `CCCNC(=O)[C@@H]1[C@@H](CO)[C@@H]2Cn3c(ccc(-c4ccccc4)c3=O)[C@H]1N2C(=O)CC`, the activity change, negative = cytotoxicity (at 26 µM (top of the series)) is 14.5% (inactive).
On the same count and under the same terms, the result for `CCc1c(C(=O)NN2C(=O)C3CCCCC3C2=O)csc1C` (stereo not drawn) reads -1.99% (inactive); that for `COc1ccc2oc(-c3ccccc3)cc(=O)c2c1`, -12.3% (inactive); that for `O=C(O)c1ccc2cc(-c3ccccc3)[nH]c2c1`, -2.41% (inactive).
